Measurements as given in article PMC2248166, “Quantitative peptide binding motifs for 19 human and mouse MHC class I molecules derived using positional scanning combinatorial peptide libraries” (Immunome Research, 2008).

Tests used:
Format in all cases: binding
HLA A*3001 = HLA A*3001 (Homo sapiens, UniProt P04439, D140H/D185E/E176W/F33S/G80R/H175R/K168Q/R138E/R41S); test: biochemical
HLA B*1501 = HLA B*1501 (Homo sapiens, UniProt P01889, A329T/A93T/A95T/C349S/D201E/D98Y/E187L/E204Q/E69M/E70A/K202T/N87E/Q94N/R155S/R180W/S121R/S35A/S48A/V306I/V36M/Y140S/Y91S); test: biochemical
HLA B*1503 = HLA B*1503 (Homo sapiens, UniProt P01889, A329T/A93T/A95T/C349S/D201E/D98Y/E187L/E204Q/K202T/N87E/Q94N/R155S/R180L/S121R/S35A/V306I/V36M/Y140S/Y91S); test: biochemical
H-2 K^k = H-2 K^k (Mus musculus, UniProt P04223)
HLA B*5301 = HLA B*5301 (Homo sapiens, UniProt P01889, A329T/A93T/A95T/C349S/D201E/D98Y/E176V/E187L/E204Q/E69T/G107R/I218V/K202T/L105A/L119I/N104I/Q94N/R106L/R155S/R180L/S101N/S121R/S35A/S48A/T118I/V127L/V306I/V36M/Y140S/Y91F)
H-2 D^d = H-2 D^d (Mus musculus, UniProt P01900)
HLA B*3501 = HLA B*3501 (Homo sapiens, UniProt P01889, A329T/A93T/A95T/C349S/D201E/D98Y/E176V/E187L/E204Q/E69T/I218V/K202T/L119I/Q94N/R155S/R180L/S121R/S35A/S48A/T118I/V127L/V306I/V36M/Y140S/Y91F)
HLA B*0801 = HLA B*0801 (Homo sapiens, UniProt P01889, A93T/A95T/D138N/E176V/E187T/K202T/Q94N/R180D/S35A/V36M/Y33D/Y91F); test: biochemical
HLA A*3201 = HLA A*3201 (Homo sapiens, UniProt P04439, A270S/D101S/D185E/E176V/E277Q/F133L/G103R/G107R/G231S/H175R/I121M/I218V/I322F/K168Q/L105A/L300P/L318F/M331R/P208A/P217A/Q94H/R106L/R138Q/S129P/T104I/T323A/T345S/V100E/V321M/V358M); test: biochemical
H-2 D^b = H-2 D^b (Mus musculus, UniProt P01899)
HLA B*5802 = HLA B*5802 (Homo sapiens, UniProt P01889, A329T/C349S/D201E/D98Y/E176V/E187L/E204Q/E69T/G107R/I218V/I90N/K202T/L105A/N104I/N87E/Q89R/Q94S/R106L/R155S/R180L/R86G/S101N/S121W/S35A/S48A/V127L/V306I/V36M/Y140S/Y91M)
HLA B*5101 = HLA B*5101 (Homo sapiens, UniProt P01889, A329T/A93T/A95T/C349S/D138N/D201E/D98Y/E187L/E204Q/E69T/G107R/I218V/K202T/L105A/L119W/N104I/Q94N/R106L/R155S/R180L/S101N/S121T/S35A/S48A/V306I/V36M/Y195H/Y91F)
HLA B*5801 = HLA B*5801 (Homo sapiens, UniProt P01889, A329T/C349S/D201E/D98Y/E176V/E187L/E204Q/E69T/G107R/I218V/I90N/K202T/L105A/L119I/N104I/N87E/Q89R/Q94S/R106L/R155S/R180L/R86G/S101N/S121R/S35A/S48A/T118I/V127L/V306I/V36M/Y140S/Y91M)
HLA A*6802 = HLA A*6802 (Homo sapiens, UniProt P04439, A269V/D140Y/D185E/E176V/E277Q/E87N/F33Y/G231S/I121R/I166T/I218V/L180W/L300P/L318F/N151K/P208A/P217A/Q86R/R138H/R169H/S129P/T345S/V36M)
HLA B*5401 = HLA B*5401 (Homo sapiens, UniProt P01889, A329T/C349S/D138N/D201E/E176V/E187T/E204Q/E69G/I76V/K202T/L119W/R155S/R180L/S121T/S35A/S48A/V127L/V306I/V36M/Y140L)
H-2 K^d = H-2 K^d (Mus musculus, UniProt P01902)
H-2 K^d, sequence (P01887 21-119): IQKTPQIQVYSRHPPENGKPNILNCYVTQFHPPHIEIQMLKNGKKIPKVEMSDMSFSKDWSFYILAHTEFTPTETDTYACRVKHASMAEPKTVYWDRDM
H-2 K^d, sequence (P01902 22-368): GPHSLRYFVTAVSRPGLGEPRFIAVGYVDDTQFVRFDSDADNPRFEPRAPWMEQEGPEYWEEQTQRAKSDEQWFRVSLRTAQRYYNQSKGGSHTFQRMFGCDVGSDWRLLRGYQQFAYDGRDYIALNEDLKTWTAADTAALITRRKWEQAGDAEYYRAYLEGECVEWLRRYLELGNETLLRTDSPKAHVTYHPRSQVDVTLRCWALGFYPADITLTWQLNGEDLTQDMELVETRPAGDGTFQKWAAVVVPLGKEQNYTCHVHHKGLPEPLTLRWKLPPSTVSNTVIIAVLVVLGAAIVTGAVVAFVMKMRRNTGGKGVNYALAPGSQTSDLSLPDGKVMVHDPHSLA

H-2 D^d, sequence (P01900 whole entry, looked up): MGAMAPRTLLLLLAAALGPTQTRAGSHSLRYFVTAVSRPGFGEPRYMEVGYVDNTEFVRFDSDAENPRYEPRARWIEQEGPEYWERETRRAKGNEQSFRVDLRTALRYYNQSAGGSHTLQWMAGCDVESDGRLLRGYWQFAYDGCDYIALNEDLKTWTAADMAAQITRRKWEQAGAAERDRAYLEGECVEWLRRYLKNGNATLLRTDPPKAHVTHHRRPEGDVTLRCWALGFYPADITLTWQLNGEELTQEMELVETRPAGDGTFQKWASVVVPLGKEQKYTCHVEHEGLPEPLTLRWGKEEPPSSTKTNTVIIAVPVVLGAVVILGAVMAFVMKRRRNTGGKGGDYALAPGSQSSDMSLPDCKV
H-2 K^k, sequence (P01887 21-119): as the sequence (P01887 21-119) above
H-2 K^k, sequence (P04223 22-369): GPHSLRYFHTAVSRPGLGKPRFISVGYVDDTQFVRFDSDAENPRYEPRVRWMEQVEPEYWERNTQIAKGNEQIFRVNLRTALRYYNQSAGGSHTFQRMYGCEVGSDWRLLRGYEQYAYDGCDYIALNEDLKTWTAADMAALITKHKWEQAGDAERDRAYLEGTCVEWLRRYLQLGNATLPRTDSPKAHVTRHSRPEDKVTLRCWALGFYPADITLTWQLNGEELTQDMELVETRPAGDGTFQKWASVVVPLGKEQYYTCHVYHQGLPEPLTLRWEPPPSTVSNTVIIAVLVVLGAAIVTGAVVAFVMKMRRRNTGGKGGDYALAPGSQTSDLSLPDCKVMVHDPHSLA
H-2 D^b, sequence (P01887 21-119): as the sequence (P01887 21-119) above
H-2 D^b, sequence (P01899 25-362): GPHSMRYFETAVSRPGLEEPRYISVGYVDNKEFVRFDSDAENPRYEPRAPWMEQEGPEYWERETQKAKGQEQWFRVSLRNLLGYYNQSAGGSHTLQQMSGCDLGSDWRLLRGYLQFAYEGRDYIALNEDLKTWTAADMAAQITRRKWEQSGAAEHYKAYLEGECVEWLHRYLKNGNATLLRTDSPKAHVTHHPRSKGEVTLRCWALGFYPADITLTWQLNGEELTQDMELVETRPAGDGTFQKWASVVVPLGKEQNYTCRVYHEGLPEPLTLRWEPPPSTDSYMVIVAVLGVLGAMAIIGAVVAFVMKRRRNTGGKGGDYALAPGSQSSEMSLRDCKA

| Sequence | Normalized average relative binding affinity(ARB) (HLA A*3001) | Normalized average relative binding affinity(ARB) (HLA B*1501) | Normalized average relative binding affinity(ARB) (HLA B*1503) | Normalized average relative binding affinity(ARB) (H-2 K^k) | Normalized average relative binding affinity(ARB) (HLA B*5301) | Normalized average relative binding affinity(ARB) (H-2 D^d) | Normalized average relative binding affinity(ARB) (HLA B*3501) | Normalized average relative binding affinity(ARB) (HLA B*0801) | Normalized average relative binding affinity(ARB) (HLA A*3201) | Normalized average relative binding affinity(ARB) (H-2 D^b) | Normalized average relative binding affinity(ARB) (HLA B*5802) | Normalized average relative binding affinity(ARB) (HLA B*5101) | Normalized average relative binding affinity(ARB) (HLA B*5801) | Normalized average relative binding affinity(ARB) (HLA A*6802) | Normalized average relative binding affinity(ARB) (HLA B*5401) | Normalized average relative binding affinity(ARB) (H-2 K^d) |
| --- | --- | --- | --- | --- | --- | --- | --- | --- | --- | --- | --- | --- | --- | --- | --- | --- |
| XXXXEXXXX [3064.0084] | 0.099 | 0.42 | 0.41 | 0.11 | 0.15 | 0.059 | 0.34 | 0.014 | 0.066 | 0.021 | 0.23 | 0.20 | 0.21 | 0.20 | 0.26 | 0.031 |
| XXXXFXXXX [3064.0085] | 0.38 | 0.52 | 0.78 | 0.19 | 1.0 | 0.16 | 0.63 | 0.21 | 1.0 | 0.044 | 0.089 | 0.29 | 0.43 | 0.87 | 1.0 | 0.13 |
| XXXXGXXXX [3064.0086] | 0.29 | 0.77 | 0.65 | 0.17 | 0.32 | 0.11 | 0.35 | 0.029 | 0.31 | 0.064 | 0.37 | 0.31 | 0.38 | 1.0 | 0.19 | 0.30 |
| XXXXHXXXX [3064.0087] | 0.14 | 0.66 | 0.32 | 0.022 | 0.091 | 0.64 | 0.19 | 0.65 | 0.14 | 0.066 | 0.74 | 0.35 | 0.21 | 0.46 | 0.19 | 0.064 |
| XXXXIXXXX [3064.0088] | 0.20 | 0.32 | 0.12 | 0.24 | 0.30 | 0.28 | 0.26 | 0.080 | 0.59 | 0.020 | 0.79 | 0.33 | 0.34 | 0.88 | 0.13 | 0.19 |
| XXXXKXXXX [3064.0089] | 0.16 | 0.31 | 0.13 | 0.091 | 0.042 | 0.44 | 0.12 | 0.47 | 0.16 | 0.032 | 0.58 | 0.29 | 0.11 | 0.14 | 0.049 | 0.011 |
| XXXXLXXXX [3064.0090] | 0.14 | 0.69 | 0.090 | 0.11 | 0.18 | 0.28 | 0.23 | 0.062 | 0.57 | 0.10 | 0.063 | 0.30 | 0.25 | 0.43 | 0.15 | 0.18 |
| XXXXMXXXX [3064.0091] | 0.33 | 0.41 | 0.064 | 0.24 | 0.38 | 0.19 | 0.98 | 0.078 | 0.31 | 0.086 | 0.42 | 0.45 | 0.092 | 0.78 | 0.72 | 0.60 |
